In ChEMBL document CHEMBL1201862, “PubChem BioAssay data set” (2004):
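96-well plates; 48 h exposure; 5 concentrations. Endpoints by linear interpolation between flanking doses. Not reached: highest tested concentration assigned. GI50 marks 50% less growth.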 Activity calls are given as the source filed them. Rule as the data show it: active = GI50 up to about 1.1 µM and inactive = higher.

How the values were obtained:
Assay in all cases: NCI-60 cell line screen, 48 h
HOP-18 = system: HOP-18
KM-20L2 = system: KM-20L2
XF498 = system: XF498
DLD-1 = system: DLD-1
RXF 631 = system: RXF 631
SNB-78 = system: SNB-78
LXFL 529 = system: LXFL 529
M19-MEL = system: M19-MEL
DMS-273 = system: DMS-273

Measured: GI50

O=C(CCN1CCCCC1)N1CCc2c([nH]c3ccccc23)C1c1cccnc1 (stereo not given)
inactive: HOP-18 > 100 µM | KM-20L2 30.1 µM | XF498 21.2 µM | DLD-1 48.4 µM | RXF 631 31 µM | SNB-78 > 86.7 µM | LXFL 529 20.9 µM | M19-MEL 21.2 µM | DMS-273 39.8 µM

C=CC(OCC)(OCC)OCC
inactive: HOP-18 > 100 µM | KM-20L2 > 100 µM | XF498 > 100 µM | DLD-1 35.2 µM | RXF 631 > 100 µM | SNB-78 > 100 µM | LXFL 529 77.3 µM | M19-MEL > 100 µM | DMS-273 18.2 µM

NS(=O)(=O)c1ccc(NC(=O)Cc2nc3ccccc3s2)cc1
inactive: HOP-18 17.8 µM | KM-20L2 18.7 µM | XF498 16.2 µM | DLD-1 15.5 µM | RXF 631 16.4 µM | SNB-78 19.5 µM | LXFL 529 16.8 µM | M19-MEL 14.6 µM | DMS-273 18.7 µM

O=C(/C=C/c1ccc(Cl)c(Cl)c1)C1CCC(Cl)CC1 (stereo not given)
inactive: HOP-18 27.5 µM | KM-20L2 20.7 µM | XF498 16 µM | DLD-1 15.6 µM | RXF 631 18.5 µM | SNB-78 21.9 µM | LXFL 529 18.2 µM | M19-MEL 17.3 µM | DMS-273 16.8 µM

Cn1cnnc1Sc1c([N+](=O)[O-])nc(-c2ccc([N+](=O)[O-])cc2)n1C
inactive: HOP-18 17.4 µM | XF498 10.4 µM | DLD-1 15.3 µM | RXF 631 17.7 µM | SNB-78 18.3 µM | LXFL 529 13.8 µM | M19-MEL 17.8 µM | DMS-273 17.4 µM

COc1cc(OC)c(SSCCCCS(=O)O)c(OC)c1
inactive: HOP-18 18 µM | KM-20L2 18.7 µM | XF498 13.9 µM | DLD-1 17.5 µM | RXF 631 > 10 µM | SNB-78 12.1 µM | LXFL 529 12.2 µM | M19-MEL 7.52 µM | DMS-273 16.7 µM

CCN(CC)[C@@H]1c2cc3c(cc2C(c2cc(OC)c(O)c(OC)c2)C2C(=O)CO[C@@H]21)OCO3 (stereo not given in full)
inactive: KM-20L2 > 100 µM | XF498 > 100 µM | DLD-1 > 100 µM | RXF 631 > 100 µM | LXFL 529 > 100 µM | M19-MEL > 100 µM | DMS-273 > 100 µM
